Measured values published in PMC9861212 (Metabolites, 2022).
Where two headings read alike, the source gives them in different places.

How the values were obtained:
[1] = Metabolite profile of SMZ in chickens (LC-v.ARC/MS-IT-TOF); type: in vivo; settings: for Share of the total radioactivity in feces: 0.5–1 d after administration; for Percentage of the individual metabolite compared with total concentration of SMZ-related compounds: within 12 h after dosing
Method: (§1) (0.1 Ci/g). […] Urine and feces samples were stored at −80 °C.
(§2) The weight of each aliquot was 0.1% of the total fraction weight (0.25% for urine). Each sample was centrifuged at 4 °C for 5 min at 4000 rpm/min. The supernatant was collected and 2 mol/L methanol-mixed acid (methanol: 0.5% perchloric acid, 8:1, v:v) was added. Then, the mixture was centrifugated at 10,000 r/min for 10 min, the supernatant was collected and dried with nitrogen at 45 °C. […] The mixture was subjected to Liquid Chromatography tandem on-line isotope detector/Time of Flight Mass Spectrometry (LC-ν.ARC/MS-IT-TOF) system analysis.
(§3) The mixture was prepared for LC-ν. ARC/MS-IT-TOF system analysis.
(§4) X is the percentage of the individual radioactive substances within the total radioactive residues. AUCM is the area under the curve of the individual radioactive substances in the specific samples. AUCT is the area under the curve of the total radioactive residues in the specific samples.

[2] = Tissue distribution and residue depletion in chickens; settings: for Concentration of the metabolites in kidney: oral gavage 25 mg/kg twice a day for 7 d, 3 d
Method: In addition, the animals in the blank group (pigs and chickens) and the animals in the treatment group were given physiological saline and 0.5% carboxymethyl cellulose aqueous solution in exactly the same dose and in exactly the same way. […] The same as above, at each sampling time point, a non-administered animal was killed and a sample was taken to obtain a blank sample. The medication groups samples and blank samples were washed and their weight was recorded. Afterwards, all samples were homogenized and divided into two parts. One part was used to detect the total radioactivity, and the other part was used for SMZ and metabolite analysis.
(§5) The total radioactivity in the samples were measured by Packard Tricarb 2900 liquid scintillation analyzer (LSC). The pretreated 200 μL liquid sample (urine, blood, and bile) was taken and 10 mL of Ultima Gold scintillation fluid was added for total radioactivity detection by LSC. Then, 200 mg of solid samples (feces and tissues) were accurately weighed, and 2 mL of digestion solution were added and mixed well, then the samples were placed in a 55 °C water bath for 6 h, and cooled to room temperature for later use. Then, 0.1 mol/L disodium edetate (EDTA-2Na) and 30% H2O2 of 200 μL were added and mixed evenly. At room temperature, 10 mL Ultima Gold scintillation fluid was added, and radioactivity determination was performed after standing [21].
The feces and tissues (2 g) were extracted with 10 mL methanol and water (4:1, v:v). The mixture was vortexed and sonicated for 5 min and 10 min, respectively, and finally the samples were centrifugated at 8000 rpm/min for 10 min. The supernatants were transferred into a new centrifuge tube and the residues were further extracted with 10 mL methanol and water (4:1, v:v). The supernatants were combined and evaporated to dryness under a nitrogen stream at 45 °C. The residues were dissolved with 0.5 mL of mobile phase and vortexed mixed for 30 s. Then, 1 mL n-hexane was added to remove the lipid, the mixture was vortexed evenly mixed, centrifugated at 10,000 rpm/min for 10 min and the n-hexane layer was discarded. […] The SMZ and its metabolites in the prepared samples were determined by a ν. ARC radiation detector and a hybrid IT/TOF mass spectrometer connected to the HPLC system (Shimadzu Corp., Kyoto, Japan). The HPLC system was equipped with a solvent delivery pump (LC20AD), autosampler (SIL20AC), DGU20A3 degasser, photodiode array detector (SPDM20A), communication base module (CBM20A), and a column oven (CTO20AC). Separation was performed on a X Bridge C18 column (150 × 2.1 mm; 3.5 μm) using a gradient elution consisting of mobile phase A (0.1% formic acid in water) and mobile phase B (acetonitrile). […] Photo-diode array (PDA) detection was performed from 200 to 400 nm. The sample chamber in the autosampler was maintained at 4 °C, whereas the column was set at 25 °C. The total effluent from the detector was transferred directly to the hybrid IT-TOF mass spectrometer without splitting. Metabolites were isolated and identified using a Shimadzu high-performance liquid chromatography-mass spectrometry-ion trap-time-of-flight (LC-MS-IT-TOF) hybrid mass spectrometer equipped with an electrospray ionization (ESI) source and operated in the positive mode. The eluate from the chromatographic separation was divided into two portions.

[3] = Metabolite profile of SMZ in pigs (LC-v.ARC/MS-IT-TOF); type: in vivo; settings: for Detection in feces: pig feces, 7 d after administration
Method: as §1
as §2, with “Each” for “The weight of each aliquot was 0.1% of the total fraction weight (0.25% for urine). Each”
as §3, §4

[4] = Tissue distribution and residue depletion in pigs
Method: (§6) Another 6 rats were administered physiological saline at the same dose and in exactly the same way as the other animals. The same as above, at each sampling time point, a non-administered animal was killed and a sample was taken to obtain a blank sample. The medication groups samples and blank samples were washed and their weight was recorded. Afterwards, all samples were homogenized and divided into two parts. One part was used to detect the total radioactivity, and the other part was used for SMZ and metabolite analysis.
as §5
The feces and tissues (2 g) were extracted with 10 mL methanol and water (4:1, v:v). The mixture was vortexed and sonicated for 5 min and 10 min, respectively, and finally the samples were centrifugated at 8000 rpm/min for 10 min. The supernatants were transferred into a new centrifuge tube and the residues were further extracted with 10 mL methanol and water (4:1, v:v). The supernatants were combined and evaporated to dryness under a nitrogen stream at 45 °C. The residues were dissolved with 0.5 mL of mobile phase and vortexed mixed for 30 s. Then, 1 mL n-hexane was added to remove the lipid, the mixture was vortexed evenly mixed, centrifugated at 10,000 rpm/min for 10 min and the n-hexane layer was discarded. […] The SMZ and its metabolites in the prepared samples were determined by a ν. ARC radiation detector and a hybrid IT/TOF mass spectrometer connected to the HPLC system (Shimadzu Corp., Kyoto, Japan). The HPLC system was equipped with a solvent delivery pump (LC20AD), autosampler (SIL20AC), DGU20A3 degasser, photodiode array detector (SPDM20A), communication base module (CBM20A), and a column oven (CTO20AC). Separation was performed on a X Bridge C18 column (150 × 2.1 mm; 3.5 μm) using a gradient elution consisting of mobile phase A (0.1% formic acid in water) and mobile phase B (acetonitrile). […] Photo-diode array (PDA) detection was performed from 200 to 400 nm. The sample chamber in the autosampler was maintained at 4 °C, whereas the column was set at 25 °C. The total effluent from the detector was transferred directly to the hybrid IT-TOF mass spectrometer without splitting. Metabolites were isolated and identified using a Shimadzu high-performance liquid chromatography-mass spectrometry-ion trap-time-of-flight (LC-MS-IT-TOF) hybrid mass spectrometer equipped with an electrospray ionization (ESI) source and operated in the positive mode. The eluate from the chromatographic separation was divided into two portions. The portion for metabolic quantification was applied to a ν.ARC 2.0, and the rest was analyzed and identified by ion trap time-of-flight tandem mass spectrometry (IT-TOF-MS/MS). Radiochemical detection was performed using the ν.ARC 2.0 Radio-LC system Detector RS232 equipped with a 500 μL detector cell (AIM Research Co., Hockessin, DE, USA).

[5] = pigs, single i.m. 25 mg/kg b.w.
Method: (§7) Six Wistar rats (three females and three males), six chickens and four pigs were housed in clean metabolic cages. […] (0.1 Ci/g). The broiler chickens were given the same dose by oral gavage. According to the recommended guidelines, the urine and feces samples of these animals were collected at different time intervals. […] At the end of the experiment, all animals were anesthetized and sacrificed in accordance with euthanasia guidelines (AVMA, 2001). Urine and feces samples were stored at −80 °C.
as §5

[6] = chickens, single oral gavage 25 mg/kg b.w.
Method: as §7, §5

[7] = Tissue distribution and residue depletion in rats; settings: single i.m. dose
Method: as §6
The total radioactivity in the samples were measured by Packard Tricarb 2900 liquid scintillation analyzer (LSC). The pretreated 200 μL liquid sample (urine, blood, and bile) was taken and 10 mL of Ultima Gold scintillation fluid was added for total radioactivity detection by LSC. […] At room temperature, 10 mL Ultima Gold scintillation fluid was added, and radioactivity determination was performed after standing [21].
The feces and tissues (2 g) were extracted with 10 mL methanol and water (4:1, v:v). […] The SMZ and its metabolites in the prepared samples were determined by a ν. […] The portion for metabolic quantification was applied to a ν.ARC 2.0, and the rest was analyzed and identified by ion trap time-of-flight tandem mass spectrometry (IT-TOF-MS/MS). […]

[8] = Metabolite profile of SMZ in rats (LC-v.ARC/MS-IT-TOF); type: in vivo; settings: rat urine; after i.m. injection
Method: as §1, §2, §3, §4

[9] = cited from earlier work
[10] = test system: TA100 strain of Salmonella typhimurium; settings: cited from earlier work
[11] = pig, within 12 h after administration
[12] = chicken, 6 h after administration
[13] = female rats, single i.m. 25 mg/kg b.w., 0–0.5 d
[14] = female rats, single i.m. 25 mg/kg b.w., 0.5–1 d
[15] = female rats, single i.m. 25 mg/kg b.w., 1–3 d
[16] = female rats, single i.m. 25 mg/kg b.w., 3–7 d
[17] = female rats, single i.m. 25 mg/kg b.w., 7–14 d
[18] = female rats, single i.m. 25 mg/kg b.w., within 14 d
[19] = male rats, single i.m. 25 mg/kg b.w., 0–0.5 d
[20] = male rats, single i.m. 25 mg/kg b.w., 0.5–1 d
[21] = male rats, single i.m. 25 mg/kg b.w., 1–3 d
[22] = male rats, single i.m. 25 mg/kg b.w., 3–7 d
[23] = male rats, single i.m. 25 mg/kg b.w., 7–14 d
[24] = male rats, single i.m. 25 mg/kg b.w., within 14 d

For `Cc1cc(NS(=O)(=O)c2ccc(NS(=O)(=O)O)cc2)no1` [Compound S4, N4-sulfatesulfamethoxazole], the “Share of the total radioactivity in feces” value ([1]; chicken feces) was 2.06% and the “Concentration of the metabolites in kidney” value (“Concentration … in kidney” for short) ([2]; chicken) was “not detected”.

For `CC(=O)Nc1ccc(S(=O)(=O)Nc2cc(C)on2)cc1` [Compound S1, N4-acetyl-sulfamethoxazole], the Detection in feces [3] was “detected”, the “Share of the total residues in fat” value [4, 11] was 58.1% and the “Share of the total residues in kidney” value [4, 11] was 66.5%. For the same molecule, the “Share of the total residues in muscle” value [4, 11] was 44.1%, the “Share of the residual amount in fat” value [2, 12] was 70.0% and the “Share of the residual amount in kidney” value [2, 12] was 1.0%. The “Share of the residual amount in liver” value [2, 12] was 71.7% and the “Share of the residual amount in muscle” value [2, 12] was 42.1%.

In the case of `Nc1ccc(S(=O)(=O)Nc2cc(CO)on2)cc1` [Compound S2, 5-hydroxysulfamethoxazole], the “Percentage of the individual metabolite compared with total concentration of SMZ-related compounds” value (“Percentage of the individual metabolite” below) ([1]; chicken Extra (feces/excreta)) is reported as 9.6%, the “Percentage of the individual metabolite” value ([1]; chicken bile) is reported as 2.5% and the “Percentage of the individual metabolite” value ([1]; chicken plasma (blood)) is reported as 1.2%. For the same molecule, the “Concentration … in kidney” value ([2]; chicken) was “not detected”.

For `[3H]c1cc(N)ccc1S(=O)(=O)Nc1cc(C)on1` [[^3H]-SMZ, 2-[^3H]-sulfamethoxazole], the “Recovery of total radioactivity in feces” value ([5]; 0–0.5 d) was 5.56 ± 0.42%, the “Recovery of total radioactivity in urine” value ([5]; 0–0.5 d) was 60.02 ± 16.54% and the “Total radioactive recovery rate (urine and feces)” value ([5]; 0–0.5 d) was “exceeds 65%”. The “Recovery of total radioactivity in feces” value ([5]; 0–14 d) was 14.72 ± 1.31%, the “Recovery of total radioactivity in feces” value ([5]; 0.5–1 d) was 2.69 ± 3.12% and the “Recovery of total radioactivity in urine” value ([5]; 0.5–1 d) was 15.3 ± 8.73%. For the same molecule, the “Recovery of total radioactivity in feces” value ([5]; 1–3 d) was 5.19 ± 3.36%, the “Recovery of total radioactivity in urine” value ([5]; 1–3 d) was 4.52 ± 2.22% and the “Recovery of total radioactivity in feces” value ([5]; 3–7 d) was 0.82 ± 0.34%. The “Recovery of total radioactivity in urine” value ([5]; 3–7 d) was 0.59 ± 0.17%, the “Recovery of total radioactivity in feces” value ([5]; 7–14 d) was 0.45 ± 0.3% and the “Recovery of total radioactivity in urine” value ([5]; 7–14 d) was 0.16 ± 0.04%. The “Recovery of total radioactivity in excreta” value (“Recovery … in excreta” for short) ([6]; 0–0.5 d, 25 mg/kg) was 60.65 ± 13.08%, the “Recovery … in excreta” value ([6]; 0–14 d) was 93.39 ± 2.28% and the “Recovery … in excreta” value ([6]; 0.5–1 d) was 15.08 ± 6.87%. For the same molecule, the “Recovery … in excreta” value ([6]; 1–3 d) was 11.91 ± 9.67%, the “Recovery … in excreta” value ([6]; 3–7 d) was 5.48 ± 1.89% and the “Recovery … in excreta” value ([6]; 7–14 d) was 0.26 ± 0.13%. The “Recovery of total radioactivity in feces” value [13] was 14.31 ± 1.73%, the “Recovery of total radioactivity in urine” value [13] was 45.38 ± 6.09% and the “Recovery of total radioactivity in feces” value (female rats, single i.m. 25 mg/kg b.w., 0–14 d) was 19.58 ± 2.09%. The “Recovery of total radioactivity in feces” value [14] was 4.45 ± 1.87%, the “Recovery of total radioactivity in urine” value [14] was 19.41 ± 2.15% and the “Recovery of total radioactivity in feces” value [15] was 1.02 ± 0.72%. For the same molecule, the “Recovery of total radioactivity in urine” value [15] was 10.09 ± 3.14%, the “Recovery of total radioactivity in feces” value [16] was 0.42 ± 0.28% and the “Recovery of total radioactivity in urine” value [16] was 3.97 ± 1.24%. For the same molecule, the “Recovery of total radioactivity in feces” value [17] was 0.05 ± 0.03%, the “Recovery of total radioactivity in urine” value [17] was 0.38 ± 0.17% and the “Total recovery of radioactivity (urine + feces)” value (from here on “Total recovery of radioactivity”) [18] was 97.3 ± 1.16%. The “Recovery of total radioactivity in feces” value [19] was 17.3 ± 1.16%, the “Recovery of total radioactivity in urine” value [19] was 45.33 ± 4.79% and the “Recovery of total radioactivity in feces” value (male rats, single i.m. 25 mg/kg b.w., 0–14 d) was 23.24 ± 1.79%. For the same molecule, the “Recovery of total radioactivity in feces” value [20] was 5.3 ± 1.43%, the “Recovery of total radioactivity in urine” value [20] was 19.31 ± 7.15% and the “Recovery of total radioactivity in feces” value [21] was 0.35 ± 0.14%. For the same molecule, the “Recovery of total radioactivity in urine” value [21] was 7.49 ± 2.04%, the “Recovery of total radioactivity in feces” value [22] was 0.25 ± 0.14% and the “Recovery of total radioactivity in urine” value [22] was 2.7 ± 1.89%. The “Recovery of total radioactivity in feces” value [23] was 0.05 ± 0.03%, the “Recovery of total radioactivity in urine” value [23] was 0.49 ± 0.3% and the “Total recovery of radioactivity” value [24] was 98.56 ± 2.82%. The “Total radioactive recovery rate (urine and feces)” value (rats, single i.m. 25 mg/kg b.w., 0–0.5 d) was greater than 59%, the “Dose excreted (total radioactivity)” value (rats, single i.m., within 14 days) was “more than 93%” and the “Time point of the highest levels of radioactivity in all collected substrates” value (shortened to “Time point”) [7] was 1 h. For the same molecule, the “Time point” value ([4]; pigs, i.m. 7 consecutive days) was 12 h and the “Time point” value ([2]; chickens, gavage 7 consecutive days) was 6 h.

In the case of `Cc1cc(NS(=O)(=O)c2ccc(NC3OC(C(=O)O)C(O)C(O)C3O)cc2)no1` (stereo not drawn) [Compound S5, N4-glucuronidsulfamethoxazole], the “Detection in urine by LC-MS-IT-TOF” value [8] is reported as “trace amounts”, the “Detection in urine by LC/MS-IT-TOF” value ([3]; pig urine, 0–0.5 d) is reported as “trace amounts” and the “Detection in feces by LC-MS-IT-TOF” value ([1]; chicken feces, 12 h) is reported as “trace amount”.

In the case of `Cc1cc(NS(=O)(=O)c2ccc(N)cc2)no1` [Compound S0, sulfamethoxazole], the Detection in feces [3] is reported as “not detected”, the “Recovery of total radioactivity in feces” value ([5]; 0–14 d) is reported as 14.7% and the “Total recovery of radioactivity” value [18] is reported as 97%. For the same molecule, the “Total recovery of radioactivity” value [24] was 98%, the Excreted through feces (rats (sexes together), single i.m. 25 mg/kg b.w., within 14 d) was 21.4% and the “Share of the total residues in fat” value [4, 11] was 41.9%. The “Share of the total residues in kidney” value [4, 11] was 33.5%, the “Share of the total residues in liver” value [4, 11] was 34.4% and the “Share of the total residues in muscle” value [4, 11] was 55.9%.

For `CC(=O)ONc1ccc(S(=O)(=O)Nc2cc(C)on2)cc1` [N-acetoxy-SMZ], the “In vitro cytotoxicity relative to S3” value [9] is listed as “more toxic than S3” and the “Mutagenicity in the Ames test” value [10] is listed as “weak mutations”.

In the case of `Cc1cc(NS(=O)(=O)c2ccc(NO)cc2)no1` [Compound S3, N4-hydroxyamino sulfamethoxazole], the “Percentage of the individual metabolite” value ([1]; chicken Extra (feces/excreta)) is reported as 4.4%, the “Percentage of the individual metabolite” value ([1]; chicken bile) is reported as “not detected” and the “Share of the total radioactivity in feces” value ([1]; chicken feces) is reported as “no longer detected”. The “Percentage of the individual metabolite” value ([1]; chicken plasma (blood)) was 0.9%, the “Reactivity / direct cytotoxicity” value [9] was “neither highly reactive nor directly cytotoxic” and the “Concentration … in kidney” value ([2]; chicken) was “not detected”.
